Patent publication US8951999B2, “Compounds” (Orexo AB, priority 2009, dated 2015)

Target: T1, recombinant human mPGES-1 (Homo sapiens, UniProt O14684)
T1 sequence (O14684 1-152): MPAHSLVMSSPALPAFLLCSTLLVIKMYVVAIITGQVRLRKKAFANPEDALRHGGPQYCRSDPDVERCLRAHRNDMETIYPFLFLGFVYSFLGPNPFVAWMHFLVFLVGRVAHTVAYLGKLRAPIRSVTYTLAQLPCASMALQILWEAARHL
Test: Assay B: mPGES-1 enzyme assay (modified)
Format: biochemical
Conditions: biological assay B (all other compounds); PGH2 final conc. 2 μM, HTRF; read-out: mPGES-1 inhibitory effect IC50
Procedure: Assay B: mPGES-1 Enzyme Assay (Modified)
The aim of this assay is to determine the affinity of a test compound for the mPGES-1 enzyme.
47 μl of recombinant human mPGES-1 (˜0.5 μg protein/well) containing microsomal suspension in a buffer containing GSH, (2.5 mmol/L L-Glutathione reduced, dissolved in 0.1 mol/L Phosphat Buffer pH 7.4) is dispensed in a 384-well plate and thereafter 1 μl of the test compound(s) is/are added and incubated for 25 minutes at room temperature. The enzyme reaction is started by the addition of 2 ul PGH2 (final conc. 2 μM) dissolved in water-free Diglyme. After 60 seconds the reaction is terminated by addition of a stop solution containing FeCl2 (10 μL 0.074 mol/l FeCl2). The samples are diluted between 1:25 in PBS (Phosphate Buffered Saline). 10 μl of the diluted samples are transferred to 384-well low volume plate. In order to quantify the amount of PGE2 that has been formed, a homogenous time resolved fluorescent (HTRF) detecting of PGE2 has been performed using a commercially available kit from Cisbio according to the manufactures recommendation. This HTRF-based assay has been described in detail (see: Goedken et al., J Biomol Screen, 2008, 13(7), 619-625). Briefly, the diluted samples are mixed with […] PGE2-d2 conjugate and 5 μl anti-PGE2 cryptate conjugate. After an incubation period of the plates over night, the fluorescence is measured by the use of an appropriate microplate reader.
The fluorescence of Europium cryptate (maxex=307 nm, maxem=620 nm) and d2-PGE2 (maxex=620 nm, maxem=665 nm) are measured.
The extent of the specific HTRF is measured as a ratio of the emission intensity at 665 nm vs. that at 620 nm at an excitation pulse of 320 nm. The quantification plate contains also wells with different concentrations of PGE2 as calibration curve for the calculation of the PGE2 concentrations from the HTRF ratio values.
From all mPGES enzyme assay the background is subtracted and the IC50 is calculated over a nonlinear regression with conventional software.

SMILES	IC50 [nM]
CC(C)(C)C(=O)NCc1ccc(Cl)c(C(=O)Nc2cnc(OCC(F)F)c(C(=O)Nc3cc(F)cc(Cl)c3)c2)c1Cl [Example 75, N-[2-(2,2-Difluoroethoxy)-3-(3-chloro-5-fluorophenyl)aminocarbonyl-pyridin-5-yl]-2,6-dichloro-5-(tert-butylcarbonylamino)methyl-benzamide]	6
CC(C)(C)C(=O)NCc1ccc(Cl)c(C(=O)Nc2cnc(OCC(F)F)c(C(=O)Nc3ccc(Cl)c(F)c3)c2)c1Cl [Example 76]	12
CC(C)(C(=O)NCc1ccc(Cl)c(C(=O)Nc2ccc(OCC(F)F)c(C(=O)Nc3ccc(F)c(Cl)c3)c2)c1F)C(F)(F)F [Example 77, N-[4-(2,2-Difluoroethyl)oxy-3-(4-fluoro-3-chloro-phenyl)aminocarbonyl-phenyl]-6-chloro-2-fluoro-3-[(2,2,2-trifluoro-1,1-dimethyl-ethyl)carbonylamino]methyl-benzamide]	2
CC(C)(C)NC(=O)c1cc(NC(=O)c2c(Cl)ccc(CNC(=O)C(C)(C)C(F)(F)F)c2F)ccc1OCC(F)F [Example 78]	2
CC(C)(C(=O)NCc1ccc(Cl)c(C(=O)Nc2ccc(OCC(F)F)c(C(=O)Nc3c(F)ccc(F)c3F)c2)c1F)C(F)(F)F [Example 79]	5
O=C(Nc1ccc(OCC(F)F)c(C(=O)Nc2ccc(Br)cc2)c1)c1cc(CNC(=O)C(F)(F)F)ccc1Cl [Example 80]	10
CC(C)(C(=O)NCc1ccc(Cl)c(C(=O)Nc2ccc(OCC(F)F)c(C(=O)Nc3ccc(Br)cc3)c2)c1)C(F)(F)F [Example 81]	2
CC(C)(C(=O)NCc1ccc(Cl)c(C(=O)Nc2ccc(OCC(F)F)c(C(=O)N[C@H]3CC[C@H](C(F)(F)F)CC3)c2)c1)C(F)(F)F [Example 82, N-[4-(2,2-difluoroethyl)oxy-3-(trans-4-trifluoromethylcyclohexyl)aminocarbonyl-phenyl]-2-chloro-5-[(2,2,2-trifluoro-1,1-dimethyl-ethyl)carbonylamino}methyl-benzamide]	8
CC(C)(C(=O)NCc1ccc(Cl)c(C(=O)Nc2ccc(OCC(F)F)c(C(=O)Nc3ncc(Cl)s3)c2)c1)C(F)(F)F [Example 83]	7
CC(C)(C(=O)NCc1ccc(Cl)c(C(=O)Nc2ccc(OCC(F)F)c(C(=O)NCc3ccccc3C(F)(F)F)c2)c1)C(F)(F)F [Example 84]	6
CC(C)(C(=O)NCc1ccc(Cl)c(C(=O)Nc2ccc(OCC(F)F)c(C(=O)NC3CCc4ccccc4C3)c2)c1)C(F)(F)F (stereo not drawn) [Example 85]	6
Cc1ccc(Cl)cc1NC(=O)c1cc(NC(=O)c2cc(CNC(=O)C(C)(C)C(F)(F)F)ccc2Cl)ccc1OCC(F)F [Example 86]	5
CC(C)(C)C1CCC(NC(=O)c2cc(NC(=O)c3cc(CNC(=O)C(C)(C)C(F)(F)F)ccc3Cl)ccc2OCC(F)F)CC1 (stereo not drawn) [Example 87]	5
COCC1(CNC(=O)c2cc(NC(=O)c3cc(CNC(=O)C(C)(C)C(F)(F)F)ccc3Cl)ccc2OCC(F)F)CCCC1 [Example 88]	9
CC(C)(C(=O)NCc1ccc(Cl)c(C(=O)Nc2ccc(OCC(F)F)c(C(=O)NCc3ccc(F)cc3C(F)(F)F)c2)c1)C(F)(F)F [Example 89]	4
CC(C)(C(=O)NCc1ccc(Cl)c(C(=O)Nc2ccc(OCC(F)F)c(C(=O)NC3CCSCC3)c2)c1)C(F)(F)F [Example 90]	9
COc1cc(Cl)ccc1NC(=O)c1cc(NC(=O)c2cc(CNC(=O)C(C)(C)C(F)(F)F)ccc2Cl)ccc1OCC(F)F [Example 91]	6
Cc1cc(NC(=O)c2cc(NC(=O)c3cc(CNC(=O)C(C)(C)C(F)(F)F)ccc3Cl)ccc2OCC(F)F)ccc1Cl [Example 92]	6
CC(C)(C(=O)NCc1ccc(Cl)c(C(=O)Nc2ccc(OCC(F)F)c(C(=O)Nc3nc4ccc(Cl)cc4s3)c2)c1)C(F)(F)F [Example 93]	7
CC(C)(C(=O)NCc1ccc(Cl)c(C(=O)Nc2ccc(OCC(F)F)c(C(=O)Nc3ccc(Cl)cc3Cl)c2)c1)C(F)(F)F [Example 94]	6
CC(C)(C(=O)NCc1ccc(Cl)c(C(=O)Nc2ccc(OCC(F)F)c(C(=O)NCC3CC3)c2)c1)C(F)(F)F [Example 95]	8
CC1CCC(NC(=O)c2cc(NC(=O)c3cc(CNC(=O)C(C)(C)C(F)(F)F)ccc3Cl)ccc2OCC(F)F)CC1 (stereo not drawn) [Example 96]	5
CNC(=O)c1cc(NC(=O)c2cc(CNC(=O)C(C)(C)C(F)(F)F)ccc2Cl)ccc1OCC(F)F [Example 97]	79
CC(C)(C(=O)NCc1ccc(Cl)c(C(=O)Nc2ccc(OCC(F)F)c(C(=O)NCC3CCCOC3)c2)c1)C(F)(F)F (stereo not drawn) [Example 98]	43

SMILES	IC50 [nM]
CC(NC(=O)c1cc(NC(=O)c2cc(CNC(=O)C(C)(C)C(F)(F)F)ccc2Cl)ccc1OCC(F)F)C(F)(F)F (stereo not drawn) [Example 99]	7
CC(C)(C(=O)NCc1ccc(Cl)c(C(=O)Nc2ccc(OCC(F)F)c(C(=O)Nc3ccc(Br)cc3F)c2)c1)C(F)(F)F [Example 100]	5
CC(C)(C(=O)NCc1ccc(Cl)c(C(=O)Nc2ccc(OCC(F)F)c(C(=O)NCc3cccc(C(F)(F)F)c3)c2)c1)C(F)(F)F [Example 101]	9
CC(C)(C(=O)NCc1ccc(Cl)c(C(=O)Nc2ccc(OCC(F)F)c(C(=O)NCC3(O)CC3)c2)c1)C(F)(F)F [Example 102]	> 100
CC(C)(C(=O)NCc1ccc(Cl)c(C(=O)Nc2ccc(OCC(F)F)c(C(=O)NC3CCC(CO)CC3)c2)c1)C(F)(F)F (stereo not drawn) [Example 103]	237
CC(C)(C(=O)NCc1ccc(Cl)c(C(=O)Nc2ccc(OCC(F)F)c(C(=O)NCc3ccc(C(F)(F)F)cc3)c2)c1)C(F)(F)F [Example 104]	10
CC(C)(C(=O)NCc1ccc(Cl)c(C(=O)Nc2ccc(OCC(F)F)c(C(=O)Nc3ccc(Br)c(Cl)c3)c2)c1)C(F)(F)F [Example 105]	5
CC(C)(C(=O)NCc1ccc(Cl)c(C(=O)Nc2ccc(OCC(F)F)c(C(=O)Nc3ccc(Cl)c(C#N)c3)c2)c1)C(F)(F)F [Example 106]	6
CC1(C)CC1CNC(=O)c1cc(NC(=O)c2cc(CNC(=O)C(C)(C)C(F)(F)F)ccc2Cl)ccc1OCC(F)F (stereo not drawn) [Example 107]	5
CC(C)(C(=O)NCc1ccc(Cl)c(C(=O)Nc2ccc(OCC(F)F)c(C(=O)Nc3ccc(Cl)c(F)c3)c2)c1)C(F)(F)F [Example 108]	5
CC(C)(C(=O)NCc1ccc(Cl)c(C(=O)Nc2ccc(OCC(F)F)c(C(=O)Nc3cc(C(F)(F)F)ccn3)c2)c1)C(F)(F)F [Example 109]	13
CC(C)NC(=O)c1cc(NC(=O)c2cc(CNC(=O)C(C)(C)C(F)(F)F)ccc2Cl)ccc1OCC(F)F [Example 110]	17
CC(C)(C(=O)NCc1ccc(Cl)c(C(=O)Nc2ccc(OCC(F)F)c(C(=O)NC3CCCC3)c2)c1)C(F)(F)F [Example 111]	7
CCNC(=O)c1cc(NC(=O)c2cc(CNC(=O)C(C)(C)C(F)(F)F)ccc2Cl)ccc1OCC(F)F [Example 112]	16
CC(C)(C(=O)NCc1ccc(Cl)c(C(=O)Nc2ccc(OCC(F)F)c(C(=O)Nc3cc(F)cc(Cl)c3)c2)c1)C(F)(F)F [Example 113]	4
CC(C)(C(=O)NCc1ccc(Cl)c(C(=O)Nc2ccc(OCC(F)F)c(C(=O)NCC(F)(F)C(F)(F)F)c2)c1)C(F)(F)F [Example 114]	10
CC(C)(C(=O)NCc1ccc(Cl)c(C(=O)Nc2ccc(OCC(F)F)c(C(=O)NCCC(F)(F)F)c2)c1)C(F)(F)F [Example 115]	15
CC(C)(C(=O)NCc1ccc(Cl)c(C(=O)Nc2ccc(OCC(F)F)c(C(=O)Nc3ccc(F)cc3Cl)c2)c1)C(F)(F)F [Example 116]	6
CC(C)(C(=O)NCc1ccc(Cl)c(C(=O)Nc2ccc(OCC(F)F)c(C(=O)NC[C@@H]3CCCO3)c2)c1)C(F)(F)F [Example 117]	40
CC(C)(C(=O)NCc1ccc(Cl)c(C(=O)Nc2ccc(OCC(F)F)c(C(=O)Nc3ccncn3)c2)c1)C(F)(F)F [Example 118]	98
CC(C)(C(=O)NCc1ccc(Cl)c(C(=O)Nc2ccc(OCC(F)F)c(C(=O)Nc3cccc(F)c3)c2)c1)C(F)(F)F [Example 119]	5
COc1cc(NC(=O)c2cc(NC(=O)c3cc(CNC(=O)C(C)(C)C(F)(F)F)ccc3Cl)ccc2OCC(F)F)ccc1Br [Example 120]	7
CC(C)(C(=O)NCc1ccc(Cl)c(C(=O)Nc2ccc(OCC(F)F)c(C(=O)NCCCC(F)(F)F)c2)c1)C(F)(F)F [Example 121]	11
CC(C)(C(=O)NCc1ccc(Cl)c(C(=O)Nc2ccc(OCC(F)F)c(C(=O)NC3CCC3)c2)c1)C(F)(F)F [Example 122]	7
